Reference: patent US8772300B2, “Phenyl or pyridinyl-ethynyl derivatives” (Hoffmann-La Roche Inc., priority 2011, dated 2014)

Target: T1, human mGlu5a receptor (Homo sapiens, UniProt P41594)
T1 construct: expressed in transfected cells
Assay: Intracellular Ca2+ mobilization assay (mGlu5 PAM)
Format: cell-based
Conditions: for Emax: HEK293, maximal response in % of the maximal stimulatory effect obtained with saturating concentrations of L-glutamate, HEK-293 human mGlu5a cells, read-out: Eff. (%); for EC50: HEK-293 cells stably transfected with human mGlu5a receptor, L-glutamate added at EC20 (typically around 80 μM) after 10-30 min pre-incubation with test compound, read-out: EC50 (nM) mGlu5PAM
Protocol: A monoclonal HEK-293 cell line stably transfected with a cDNA encoding for the human mGlu5a receptor was generated; for the work with mGlu5 Positive Allosteric Modulators (PAMs), a cell line with low receptor expression levels and low constitutive receptor activity was selected to allow the differentiation of agonistic versus PAM activity. Cells were cultured according to standard protocols (Freshney, 2000) in Dulbecco's Modified Eagle Medium with high glucose supplemented with 1 mM glutamine, 10% (vol/vol) heat-inactivated bovine calf serum, Penicillin/Streptomycin, 50 μg/ml hygromycin and 15 μg/ml blasticidin (all cell culture reagents and antibiotics from Invitrogen, Basel, Switzerland).
About 24 hrs before an experiment, 5×10^4 cells/well were seeded in poly-D-lysine coated, black/clear-bottomed 96-well plates. The cells were loaded with 2.5 μM Fluo-4AM in loading buffer (1×HBSS, 20 mM HEPES) for 1 hr at 37° C. and washed five times with loading buffer. The cells were transferred into a Functional Drug Screening System 7000 (Hamamatsu, Paris, France), and 11 half logarithmic serial dilutions of test compound at 37° C. were added and the cells were incubated for 10-30 min with on-line recording of fluorescence. Following this pre-incubation step, the agonist L-glutamate was added to the cells at a concentration corresponding to EC20 (typically around 80 μM) with on-line recording of fluorescence; in order to account for day-to-day variations in the responsiveness of cells, the EC20 of glutamate was determined immediately ahead of each experiment by recording of a full dose-response curve of glutamate.
Responses were measured as peak increase in fluorescence minus basal (i.e. fluorescence without addition of L-glutamate), normalized to the maximal stimulatory effect obtained with saturating concentrations of L-glutamate. Graphs were plotted with the % maximal stimulatory using XLfit, a curve fitting program that iteratively plots the data using Levenburg Marquardt algorithm. The single site competition analysis equation used was y=A+((B−A)/(1+((x/C)D))), where y is the % maximal stimulatory effect, A is the minimum y, B is the maximum y, C is the EC50, x is the log 10 of the concentration of the competing compound and D is the slope of the curve (the Hill Coefficient). From these curves the EC50 (concentration at which half maximal stimulation was achieved), the Hill coefficient as well as the maximal response in % of the maximal stimulatory effect obtained with saturating concentrations of L-glutamate were calculated.
A depression of the signal observed after addition of the EC20 concentration of L-glutamate was indicative of an inhibitory activity of the test compound.

T1 sequence (P41594 21-1180 isoform P41594-2 limits assumed): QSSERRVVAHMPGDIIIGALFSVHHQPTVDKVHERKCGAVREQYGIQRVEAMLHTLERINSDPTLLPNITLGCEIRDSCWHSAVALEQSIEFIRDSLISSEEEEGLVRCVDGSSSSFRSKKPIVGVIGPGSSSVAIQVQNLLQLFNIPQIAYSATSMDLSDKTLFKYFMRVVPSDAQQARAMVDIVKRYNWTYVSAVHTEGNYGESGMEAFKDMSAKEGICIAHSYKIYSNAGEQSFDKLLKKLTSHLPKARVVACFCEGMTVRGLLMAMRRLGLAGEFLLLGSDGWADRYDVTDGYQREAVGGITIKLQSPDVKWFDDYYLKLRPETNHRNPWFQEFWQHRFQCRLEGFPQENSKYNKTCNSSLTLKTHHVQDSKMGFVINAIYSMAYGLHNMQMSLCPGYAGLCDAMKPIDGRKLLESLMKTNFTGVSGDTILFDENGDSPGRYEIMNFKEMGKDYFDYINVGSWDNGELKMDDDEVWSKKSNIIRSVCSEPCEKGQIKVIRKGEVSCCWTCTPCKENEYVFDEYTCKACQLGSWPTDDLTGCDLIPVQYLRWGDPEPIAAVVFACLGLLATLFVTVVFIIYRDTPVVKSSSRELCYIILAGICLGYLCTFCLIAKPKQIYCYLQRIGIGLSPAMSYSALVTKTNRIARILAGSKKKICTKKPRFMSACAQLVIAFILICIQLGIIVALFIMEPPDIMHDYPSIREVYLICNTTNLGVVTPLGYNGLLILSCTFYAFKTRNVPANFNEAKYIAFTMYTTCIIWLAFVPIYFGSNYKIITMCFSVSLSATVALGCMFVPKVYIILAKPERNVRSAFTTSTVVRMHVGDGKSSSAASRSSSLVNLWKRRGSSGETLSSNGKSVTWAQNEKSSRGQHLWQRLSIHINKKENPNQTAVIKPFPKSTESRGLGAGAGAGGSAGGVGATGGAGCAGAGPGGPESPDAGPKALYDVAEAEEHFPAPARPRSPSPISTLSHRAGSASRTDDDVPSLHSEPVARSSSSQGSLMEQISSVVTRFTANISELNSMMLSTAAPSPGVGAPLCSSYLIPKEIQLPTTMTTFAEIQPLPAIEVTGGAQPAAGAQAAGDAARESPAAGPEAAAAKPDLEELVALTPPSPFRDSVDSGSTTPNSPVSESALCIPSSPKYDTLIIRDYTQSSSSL

## CC1(C)CN(C(=O)c2ccc(C#Cc3ccccc3)cn2)CCC1O (racemic) [Example 39, (RS)-(4-Hydroxy-3,3-dimethyl-piperidin-1-yl)-(5-phenylethynyl-pyridin-2-yl)-methanone]
  Emax: 58%
  EC50: 35 nM

## CN(C(=O)c1ncc(C#Cc2cccc(F)c2)cc1F)C1(C)CC1 [Example 42, 3-Fluoro-5-(3-fluoro-phenylethynyl)-pyridine-2-carboxylic Acid methyl-(1-methyl-cyclopropyl)-amide]
  Emax: 35%
  EC50: 33 nM

## CC1(C)CC(O)CCN1C(=O)c1ccc(C#Cc2ccccc2)cn1 (racemic) [Example 38, (RS)-(4-Hydroxy-2,2-dimethyl-piperidin-1-yl)-(5-phenylethynyl-pyridin-2-yl)-methanone]
  Emax: 57%
  EC50: 28 nM

## CN(C(=O)c1ccc(C#Cc2cc(F)ccc2F)cn1)C1(C)COC1 [Example 29, 5-(2,5-Difluoro-phenylethynyl)-pyridine-2-carboxylic Acid methyl-(3-methyl-oxetan-3-yl)-amide]
  Emax: 45%
  EC50: 21 nM

## CC1(C)CC(O)CCN1C(=O)c1ncc(C#Cc2cc(F)ccc2F)cc1F (racemic) [Example 68, (RS)-[5-(2,5-Difluoro-phenylethynyl)-3-fluoro-pyridin-2-yl]-(4-hydroxy-2,2-dimethyl-piperidin-1-yl)-methanone]
  Emax: 54%
  EC50: 46 nM

## CN(C(=O)c1ncc(C#Cc2ccccc2)cc1F)C1(C)COC1 [Example 50, 3-Fluoro-5-phenylethynyl-pyridine-2-carboxylic Acid methyl-(3-methyl-oxetan-3-yl)-amide]
  Emax: 67%
  EC50: 40 nM

## CC1(C)CN(C(=O)c2ncc(C#Cc3ccccc3)cn2)CCC1O (racemic) [Example 48, (RS)-(4-Hydroxy-3,3-dimethyl-piperidin-1-yl)-(5-phenylethynyl-pyrimidin-2-yl)-methanone]
  Emax: 55%
  EC50: 49 nM

## CN(C(=O)c1ccc(C#Cc2cccc(F)c2)cn1)C1(C)COC1 [Example 27, 5-(3-Fluoro-phenylethynyl)-pyridine-2-carboxylic Acid methyl-(3-methyl-oxetan-3-yl)-amide]
  Emax: 53%
  EC50: 24 nM

## CN(C(=O)c1ccc(C#Cc2cncc(F)c2)cn1)C(C)(C)C [Example 8, 5-(5-Fluoro-pyridin-3-ylethynyl)-pyridine-2-carboxylic Acid tert-butyl-methyl-amide]
  Emax: 79%
  EC50: 62 nM

## CC1(C)CC(O)CCN1C(=O)c1ncc(C#Cc2cc(F)ccc2F)cn1 (racemic) [Example 66, (RS)-[5-(2,5-Difluoro-phenylethynyl)-pyrimidin-2-yl]-(4-hydroxy-2,2-dimethyl-piperidin-1-yl)-methanone]
  Emax: 49%
  EC50: 101 nM

## CN(C(=O)c1ncc(C#Cc2ccccc2)cc1C#N)C(C)(C)C [Example 52, 3-Cyano-5-phenylethynyl-pyridine-2-carboxylic Acid tert-butyl-methyl-amide]
  Emax: 96%
  EC50: 34 nM

## CC(NC(=O)c1ccc(C#Cc2ccnc(Cl)c2)cn1)C(F)(F)F (racemic) [Example 57, (RS)-5-(2-Chloro-pyridin-4-ylethynyl)-pyridine-2-carboxylic Acid (2,2,2-trifluoro-1-methyl-ethyl)-amide]
  Emax: 42%
  EC50: 22 nM

## CN(C(=O)c1ccc(C#Cc2cccc(F)c2)cn1)C1(C)CC1 [Example 31, 5-(3-Fluoro-phenylethynyl)-pyridine-2-carboxylic Acid methyl-(1-methyl-cyclopropyl)-amide]
  Emax: 43%
  EC50: 17 nM

## CC1(C)CC(O)CCN1C(=O)c1ccc(C#Cc2cccc(F)c2)cn1 (racemic) [Example 63, (RS)-[5-(3-Fluoro-phenylethynyl)-pyridin-2-yl]-(4-hydroxy-2,2-dimethyl-piperidin-1-yl)-methanone]
  Emax: 45%
  EC50: 40 nM
